Measurements published in EP1884251A1, “Use of fragrance compositions for the prevention of the development of indole based malodours from faecal and urine based soils” (Takasago International Corporation, priority 2006, dated 2008).

Experiment: Change in fragrance compound concentration during the indole inhibition test (GC-MS at start and after 24 hours)
Assay type: physicochemical
Settings: in fresh human urine, room temperature; for Decrease in Fragrance Compounds after 24 hours (%) 0-30%: category 0-30%; for Decrease in Fragrance Compounds after 24 hours (%) >60%: category >60%
Description: Advantageously, the appropriate fragrance compounds may be selected by using the following preferred indole inhibition test which comprises the following steps: • A) 0.02g of fragrance and 0.02g of Tergitol 15-s-12 was added to 7g of fresh human urine in a 20 ml Headspace vial sealed with a PTFE faced septum and well mixed for 10 minutes using a magnetic stirrer. For a blank to test the suitability of a batch of fresh human urine, 7g of human urine was used with 0.02g of demineralised water and 0.02g of Tergitol 15-s-12. If a control was required, to test the efficacy of product base for example, the control contained 7g of human urine to which was added 0.02g of fragrance, minus the active agents and 0.02g of Tergitol 15-s-12. • B) The vials are placed in an autosampler tray at room temperature. • C) At different times the headspace in the vials is sampled for 5 minutes at 35°C by an SPME fibre (PDMS fibre ex Supelco) after 10 minutes at 35°C (incubation time). • D) The SPME fibre is desorbed 1 minute at 265°C from a CTC Combipal autosampler and injected in splitless mode onto an Agilent GC-MS 5973N with a HP-INNOWAX column (30m x 0.25 x 0.25). (Oven conditions : 50°C during 2min - to 250°C at 10°C/min - 250°C during 5 minutes). • E) Under the above GC-MS conditions, indole has a retention time of 19.14 minutes, and can be recognised by its characteristic ions (m/z 117, m/z 89 and m/z 90). • F) In the range of values determined in this work, the area of the indole peak (117) is linearly related to the actual concentration in the vial, and was used without further correction to establish the concentration of indole in "Active" and "Blank" and if present any "Control" fragrances. • G) The material is deemed to be active if the indole concentration in the test sample is below 0.01ppm (wt/wt) after 24 hours incubation at room temperature and the indole in the blank samples is between 0.25ppm (wt/wt) and 1.25ppm (wt/wt) indole after 24 hours storage at room temperature. • H) The change in the active ingredient concentration is determined by comparing measurements at the start of the experiment and after 24 hours using appropriate characteristic ions.
This can be determined by measuring the fragrance concentration in the sample containing the test cocktail at the start and end of the indole inhibition test as described in step I of the test. If the difference between the measurements is less than 60% preferably less than 30% then the material is considered as not to have changed sufficiently to alter the fragrance note and to be particularly preferred.
A sample of fresh human urine is divided into equal portions and a fragrance containing one or more of the effective materials was added as described in the Indole Inhibition Test. […] The samples were stored and after 24 hours the indole content and fragrance active content is measured by gas chromatography with mass spectrometric (GCMS) detection. Those formulations containing active ingredients prevented the formation of indole while both the unfragranced and the alcohol containing control samples had much greater quantities of indole present. Also for the active compounds a GCMS measurement indicated the extent to which the compound was itself consumed as part of the process. In table 2 the decrease in fragrance components has been classified into 3 categories and the letter Y indicates the appropriate category for the compounds which have been measured. The absence of a letter Y in any category means that the decrease has not been measured for that compound. Table 2. Examples of effective materials

| Compound | Decrease in Fragrance Compounds after 24 hours (%) 0-30% | further results |
| --- | --- | --- |
| C=C(C)C1CC=C(C=O)CC1 (stereo not shown) [Perilla aldehyde] | Y (Y= Yes) | – |
| CCc1occc(=O)c1O [Veltol Plus] | – | Decrease in Fragrance Compounds after 24 hours (%) >60%: Y (Y= Yes) |
| O=C/C=C/c1ccccc1 [Cinnamic aldehyde] | Y (Y= Yes) | – |
| CCC/C=C/C=O [Trans 2 hexenal] | – | Decrease in Fragrance Compounds after 24 hours (%) 0-60% (category 0-60%): Y (Y= Yes) |
| CCCCCCCCCCC=O [Aldehyde C11] | – | Decrease in Fragrance Compounds after 24 hours (%) >60%: Y (Y= Yes) |
| O=Cc1ccccc1 [Benzaldehyde] | Y (Y= Yes) | – |
| CC(C)=CCCC(C)=CC=O [Citral] | Y (Y= Yes) | – |
